Values joined by “and” are separate entries in the source; they are usually repeats but may differ in a detail not shown here. Equal values may be shown once. Read-outs that look alike come from different tables or passages of the source.
Legend:
Format in all cases: cell-based
[1] = system: Plasmodium falciparum Dd2; assay: Antiplasmodial pLDH assay, chloroquine-resistant strain Dd2; details: for Resistance index (RI): RI = IC50 Dd2 / IC50 D10
[2] = system: Plasmodium falciparum D10; assay: Antiplasmodial pLDH assay, chloroquine-sensitive strain D10
[3] = system: Chinese Hamster Ovarian (CHO) cell line; assay: Cytotoxicity MTT assay; details: for Selectivity index (SI): SI = IC50 CHO / IC50 D10; for CHO Cell line (IC50) / IC50: triplicate; for IC50: read-out: CHO Cell line (IC50)
[4] = Plasmodium falciparum, DD2, read-out: Plasmodium falciparum Dd2: IC50
[5] = Plasmodium falciparum, D10, read-out: Plasmodium falciparum D10 (IC50)
[6] = CQ-resistant Dd2 strain, pLDH, triplicate, ten point dose response
[7] = read-out: Plasmodium falciparum Dd2: IC50, CQ-resistant Dd2 strain, pLDH, triplicate, ten point dose response
[8] = CQ-sensitive D10 strain, pLDH, triplicate, ten point dose response
[9] = read-out: Plasmodium falciparum D10 (IC50), CQ-sensitive D10 strain, pLDH, triplicate, ten point dose response

Molecule | IC50 [1, 4] | IC50 [2, 5] | Resistance index (RI) [1] | Selectivity index (SI) [3] | Plasmodium falciparum Dd2: IC50 [1, 6] | IC50 [1, 7] | CHO Cell line (IC50) ([3]; CHO cells, MTT) | IC50 ([3]; CHO cells, MTT) | Plasmodium falciparum D10 (IC50) [2, 8] | IC50 [2, 9] | Cytotoxicity (in words) ([3]; CHO cells, MTT) | Cytotoxicity (in words) [3]
CCN(CC)CCCC(C)Nc1ccnc2cc(Cl)ccc12 (stereo not drawn) [Chloroquine, Chloroquine diphosphate, reference compound] | 0.07 µg/mL and 230 nM | 0.01 µg/mL and 30 nM | – | – | – | – | – | – | – | – | – | –
c1ccc2c(c1)C[C@H]1NCCc3cc4c(c-2c31)OCO4 [Compound 5, anonaine] | 5.2 µg/mL and 19.6 µM | 1.2 µg/mL and 4.5 µM | 4.2 | > 83 | – | – | – | – | – | – | – | –
C=C1C(=O)O[C@H]2[C@H]1[C@H](OC(C)=O)CC(=C)[C@H](OO)CC[C@@]1(C)O[C@H]21 [Compound 7, peroxyferolide] | – | – | 0.7 | 0.5 | 4.3 ± 1.2 µg/mL | 12.7 ± 3.5 µM | 3.2 ± 0.6 µg/mL | 9.5 ± 1.8 µM | 6.2 ± 0.1 µg/mL | 18.3 ± 0.3 µM | – | –
asimilobine [Compound 1] | – | – | 4.8 | > 83 | 5.8 ± 1.3 µg/mL | 21.7 ± 6.3 µM | > 100 µg/mL | > 300 µM | 1.2 ± 0.1 µg/mL | 4.5 ± 0.3 µM | – | –
C=C1C(=O)O[C@@H]2C3O[C@]3(C)CC/C=C(\C)C[C@@H](OC(C)=O)[C@@H]12 (stereo partly drawn) [Compound 8, lipiferolide] | – | – | 1.3 | 0.8 | 2.3 ± 0.1 µg/mL | 7.5 ± 0.3 µM | 1.4 ± 0.2 µg/mL | 4.6 ± 0.7 µM | 1.8 ± 0.7 µg/mL | 5.9 ± 2.3 µM | – | –
COc1cc2c(cc1OC)-c1c(OC)c(OC)cc3c1[C@H](C2)NCC3 [Compound 3, norglaucine] | – | – | 1.5 | > 5 | 32.2 ± 1.3 µg/mL | 94.3 ± 3.8 µM | > 100 µg/mL | > 300 µM | 22.0 ± 2.8 µg/mL | 64.4 ± 8.2 µM | no observable cytotoxicity | –
O=C1c2ccccc2-c2c3c(cc4ccnc1c24)OCO3 [Compound 4, liriodenine] | 7.9 µg/mL and 28.7 µM | 4.1 µg/mL and 14.9 µM | 1.9 | 2.0 | – | – | – | – | – | – | – | –
O[C@@H]1c2ccccc2-c2c3c(cc4c2[C@@H]1NCC4)OCO3 [Compound 2, norushinsunine] | – | – | 1.0 | > 3 | 30.9 ± 2.3 µg/mL | 110 ± 8.1 µM | > 100 µg/mL | > 300 µM | 29.6 ± 3.9 µg/mL | 105 ± 13.9 µM | – | no observable cytotoxicity
COc1cc2c(cc1OC)-c1c(OC)c(OC)cc3ccnc(c13)C2=O [Compound 6, oxoglaucine] | 20.8 µg/mL and 59.2 µM | 9.1 µg/mL and 25.9 µM | 2.3 | > 11 | – | – | – | – | – | – | no observable cytotoxicity | –

From publication PMC3010440 (Journal of ethnopharmacology, 2010)
